Assay results as given in patent publication US20200179488A1, “Secretin Receptor Agonists to Treat Diseases or Disorders of Energy Homeostasis” (Technische Universität München, priority 2016, published 2020).

Legend:
[1] = test system: primary brown adipocytes from UCP1 knockout mice; experiment: Microplate respirometry (oxygen consumption rate) in primary brown adipocytes from UCP1 knockout mice; assay type: cell-based, Mus musculus
Protocol: For culturing primary adipocytes male 129S1/SvImJ mice ([…] or UCP1-KO mice and wildtype littermates) at the age of 5-6 weeks were used for the dissection of inguinal and epidydimal white adipose tissue and interscapular brown adipose tissue depots. The tissue was carefully minced and treated with collagenase for 45 min at 37° C. The homogenate was filtered through a 250 μm nylon mesh and centrifuged at 500 g to collect the stromal vascular fraction (SVF). The SVF cell pellet was rinsed and seeded into XF96 V3-PS cell culture microplate (Seahorse Bioscience). After reaching confluency, induction medium containing 10% fetal bovine serum (FBS), 0.5 mM isobutylmethylxanthine, 125 nM indomethacin, 1 mM dexamethasone, 850 nM insulin and 1 nM T3 was added. After 2 days of induction, cells were maintained in differentiation media (10% FBS, 850 nM insulin and 1 nM T3). Medium was changed every two days. Respiration was measured on day 7 of differentiation. For determination of mRNA levels cells were stimulated at the 7th day of differentiation for 6 hours with secretin (rat, Tocris, Art Nr 1919) or isoproterenol (Sigma-Aldrich, Art Nr. 16504-100MG) and harvested subsequently. Oxygen consumption rate (OCR) was measured at 37° C. using a microplate respirometer (XF96 extracellular flux analyzer, Seahorse Bioscience). At day 7, the differentiation medium was replaced with prewarmed, unbuffered assay medium (DMEM basal medium supplemented with 25 mM glucose, 2 mM sodium pyruvate, 31 mM NaCl, 2 mM GlutaMax and 15 mg/l phenol red, pH 7.4) containing 2% of essentially fatty acid free bovine serum albumin (BSA), and incubated at 37° C. in a room air incubator for 1 h. Basal respiration was measured in untreated cells. […] Maximum respiratory capacity was assessed after FCCP (Sigma-Aldrich) addition (1 μM). […] Oxygen consumption rates were calculated using the Seahorse XF-96 software. […] For induction of OCR by isoproterenol, secretin or FCCP the highest values measured after addition of the respective molecule was used. The “OCR in % of basal OCR” and “OCR in % of FCCP OCR” were calculated as follows: Method: To test whether SCT can activate thermogenesis in brown adipocytes, we measured UCP1-mediated uncoupled respiration in cultured adherent intact primary brown adipocytes, according to a protocol recently established in our lab (Li Y, Fromme T, Schweizer S, Schöttl T, Klingenspor M. EMBO Rep. 2014 October; 15(10):1069-76. doi: 10.15252/embr.201438775; […]. Meaningful respirometric measurements of UCP1-mediated thermogenesis. Biochimie. 2017 March; 134:56-61. doi: 10.1016/j.biochi.2016.12.005.). The cellular oxygen consumption rate (OCR) of primary adipocytes was determined using an XF96 Extracellular Flux Analyzer (Seahorse Bioscience). […]

primary brown adipocytes = experiment: Microplate respirometry (oxygen consumption rate) in differentiated primary brown adipocytes of wildtype mice; assay type: cell-based, Mus musculus; conditions: for stimulation of UCP1-mediated thermogenesis (uncoupled respiration): SCT 10 nM, ISO 500 nM, N=5 (FIG. 10A)
Protocol: For culturing primary adipocytes male 129S1/SvImJ mice ([…] or UCP1-KO mice and wildtype littermates) at the age of 5-6 weeks were used for the dissection of inguinal and epidydimal white adipose tissue and interscapular brown adipose tissue depots. The tissue was carefully minced and treated with collagenase for 45 min at 37° C. The homogenate was filtered through a 250 μm nylon mesh and centrifuged at 500 g to collect the stromal vascular fraction (SVF). The SVF cell pellet was rinsed and seeded into XF96 V3-PS cell culture microplate (Seahorse Bioscience). After reaching confluency, induction medium containing 10% fetal bovine serum (FBS), 0.5 mM isobutylmethylxanthine, 125 nM indomethacin, 1 mM dexamethasone, 850 nM insulin and 1 nM T3 was added. After 2 days of induction, cells were maintained in differentiation media (10% FBS, 850 nM insulin and 1 nM T3). Medium was changed every two days. Respiration was measured on day 7 of differentiation. For determination of mRNA levels cells were stimulated at the 7th day of differentiation for 6 hours with secretin (rat, Tocris, Art Nr 1919) or isoproterenol (Sigma-Aldrich, Art Nr. 16504-100MG) and harvested subsequently. Oxygen consumption rate (OCR) was measured at 37° C. using a microplate respirometer (XF96 extracellular flux analyzer, Seahorse Bioscience). At day 7, the differentiation medium was replaced with prewarmed, unbuffered assay medium (DMEM basal medium supplemented with 25 mM glucose, 2 mM sodium pyruvate, 31 mM NaCl, 2 mM GlutaMax and 15 mg/l phenol red, pH 7.4) containing 2% of essentially fatty acid free bovine serum albumin (BSA), and incubated at 37° C. in a room air incubator for 1 h. Basal respiration was measured in untreated cells. Coupled respiration was inhibited by oligomycin treatment (5 μM). […] Maximum respiratory capacity was assessed after FCCP (Sigma-Aldrich) addition (1 μM). Finally, mitochondrial respiration was blocked by antimycin A (Sigma-Aldrich) (5 μM) treatment and the residual OCR was considered to be due to non-mitochondrial reactions. Oxygen consumption rates were calculated using the Seahorse XF-96 software. Data were exported and reconstructed in GraphPad Prism 4.0 software. For each condition the lowest OCR after antimycin A addition was subtracted from all other values. Respiration rates following oligomycin addition were defined as basal OCR. For induction of OCR by isoproterenol, secretin or FCCP the highest values measured after addition of the respective molecule was used. The “OCR in % of basal OCR” and “OCR in % of FCCP OCR” were calculated as follows: Method: To test whether SCT can activate thermogenesis in brown adipocytes, we measured UCP1-mediated uncoupled respiration in cultured adherent intact primary brown adipocytes, according to a protocol recently established in our lab (Li Y, Fromme T, Schweizer S, Schöttl T, Klingenspor M. EMBO Rep. 2014 October; 15(10):1069-76. doi: 10.15252/embr.201438775; […]. Meaningful respirometric measurements of UCP1-mediated thermogenesis. Biochimie. 2017 March; 134:56-61. doi: 10.1016/j.biochi.2016.12.005.). The cellular oxygen consumption rate (OCR) of primary adipocytes was determined using an XF96 Extracellular Flux Analyzer (Seahorse Bioscience). Briefly, primary adipocytes were cultured and differentiated in XF96 microplates. At day 7 of differentiation, cells were washed once with prewarmed, unbuffered assay medium (DMEM basal medium supplemented with 25 mM glucose, 31 mM NaCl, 2 mM GlutaMax and 15 mg/l phenol red, pH 7.4) (basal assay medium) and then the medium was replaced with basal assay medium containing 1-2% essentially fatty acid free bovine serum albumin (BSA), and incubated at 37° C. in a room air incubator for 1 h. The drug injections ports of the sensor cartridges were loaded with the assay reagents at 10× in basal assay medium (no BSA). All respiration assays were performed in the presence of bovine serum albumin to buffer free fatty acid levels in the respiration medium. […]

UCP1 knockout mice = experiment: Indirect calorimetry, heat production after i.p. injection in UCP1 knockout mice; assay type: in vivo, Mus musculus; conditions: 0.5 mg/kg i.p., 27° C., 60 minutes, p=0.482 (FIG. 6B, 6C)
Protocol: Indirect calorimetric measurements in mice were performed using an open flow respirometry system (Phenomaster, TSE Systems, Bad Homburg/Germany). All animals were kept at room temperature or cold-acclimated at 4° C. for 4 days as indicated in the results section. For the gas exchange measurement (O2 consumption and CO2 production) mice were placed individually in metabolic cages (type I, 3 liter volume) without food and water and transferred to a climate cabinet (TPK 600, Feutron, Greiz/Germany). The air was continuously pulled through the cages at a flow rate of 33 l/h. For gas analysis a subsample was dried in a cooling trap and analyzed for gas exchange. Mice in the cabinet were preconditioned to 30° C. and the basal metabolic rate (BMR) in the post-absorptive state was measured between 8:00 a.m.-12:00 p.m. The O2 consumption and CO2 production of each mouse was analyzed every 5 min over a period of 1 min. […] After injection the O2 consumption and CO2 production rate of each mouse was recorded for 45-60 min with high-resolution recordings at 10 sec intervals. […] Respiratory exchange ratios (RER) and heat production (HP) were calculated from the following formula: (RER=CO2 production/O2 consumption) and (HP[mW]=(4.44+1.43*respiratory exchange ratio)*oxygen consumption [ml/h]).

secretin
induction of respiration in cells from UCP1 knockout mice ([1]; 129/S1 background, FIG. 3): lacking | response of respiration in UCP1 knockout brown adipocytes ([1]; SCT 10 nM, ISO 500 nM (FIG. 10B)): did not respond | increase of OCR above basal OCR (primary brown adipocytes; 0.5 μM, after oligomycin, day 7 of differentiation (FIG. 2B)): about 200% | uncoupled OCR as share of maximal uncoupled OCR induced by FCCP (primary brown adipocytes; 0.5 μM, day 7 of differentiation (FIG. 2C)): about 75% | induction of oxygen consumption in cells from wildtype control mice (primary brown adipocytes; 129/S1 background, FIG. 3): increase in oxygen consumption | stimulation of UCP1-mediated thermogenesis (uncoupled respiration) (primary brown adipocytes): activate UCP1-dependent thermogenesis | stimulation of UCP1-mediated thermogenesis (uncoupled respiration) (primary brown adipocytes; listed as SCT): as potent as ISO (500 nM) | dose dependence and potency of activation of uncoupled respiration (primary brown adipocytes; compared to isoproterenol, data not shown): dose-dependent with a higher potency at lower concentrations as compared to isoproterenol | heat production and its AUC versus PBS (UCP1 knockout mice): no difference
